From patent publication US7754483B2, “Systems and methods for selection and maintenance of homogeneous and pluripotent human embryonic stem cells” (The Penn State Research Foundation, priority 2005, dated 2010)

Columns and labels:
[1] = system: hES cells, H1 or H9; assay: Liposomal ceramide treatment of hES cell colonies co-cultured with mouse feeder cells; format: cell-based
Protocol: Mouse feeder cells are irradiated (7500 Rad) and plated (2×10^4 cells/cm^2) on 6-well plates pre-coated with 0.1% gelatin. Feeder cells are allowed to attach and grow overnight prior to hES cell co-culture. Human ES cells are maintained with Dulbecco's Modified Eagle Medium/F12 (Gibco) supplemented with 20% KnockOut serum replacement (Gibco), 1% nonessential amino acids (Gibco), 2 mM GlutaMAX-1 (Gibco), 4 ng/ml basic human FGF (Invitrogen) and 0.1 mM beta-mercaptoethanol (Sigma). Cells are manually passaged following 10 min of collagenase IV incubation (1 mg/ml) at 1:5-1:10 split ratio every 5-7 days. […] Human ES cells co-cultured with feeder cells are treated with collagenase IV for 10 min, collected manually and plated in a 1:3-1:5 split ratio (day=0). Cells are maintained with normal hES cell culture medium until treatment with ceramide (day=2).
Increasing concentrations, 1, 3, 5, 10, 15 and 30 micromolar, of liposomal C6-ceramide are added to hES cell culture medium after a majority of the colonies had reached a size between 0.5-0.7 mm in diameter (day 5-6 of the culture). Relative volumes of “ghost liposome” containing no ceramide are used as a control. These ghost liposomes contained an equal mass of total lipids as ceramide formulations. […]

[2] = system: hES cells; assay: Apoptosis detection by TUNEL assay; format: cell-based, human; settings: Example 22, hESC colonies
Protocol: Ceramide-induced apoptosis is assessed and visualized by TUNEL assay using the In Situ Cell Death Detection Kit, TMR Red (Roche Applied Bioscience). A TUNEL (Terminal deoxynucleotidyl Transferase Biotin-dUTP Nick End Labeling) assay measures and quantitates apoptosis by labeling DNA strand breaks in individual cells and detecting them by fluorescence microscopy. Human ES cells are cultured on glass cover-slips coated with 0.1% gelatin and mouse feeder cells. When the majority of the colonies reached the size of 0.5-0.7 mm (usually by day 5 of the culture), cells are treated with liposomal C6-ceramide (3 micromolar final) or ghost (no ceramide) for 12 hr. Cells are incubated for 12 hr because cells undergoing apoptosis are still attached to the cover-slip, making observation convenient. After 12 hr, cells become round and detached. At the end of the treatment period, cells are fixed with 4% formaldehyde (Tousimis) in PBS. TUNEL assay is performed using the In Situ Cell Death Detection Kit, TMR Red (Roche Applied Bioscience) following the manufacturer's instructions. Briefly, cells are permeabilized by incubating in 0.1% PBST for 2 min on ice. TUNEL reaction mixture is prepared freshly by mixing 50 microliters of enzyme solution (terminal deoxynucleotidyl transferase) with 450 microliters label solution (nucleotide mixture). […]

[3] = system: hES cells; assay: In vitro differentiation of hES cells; format: cell-based, human; settings: after elimination of ceramide-sensitive cells
Description: Once separated from feeder cells and serum, hES cells typically spontaneously differentiate into progenitor cells and such cultures include ectoderm, mesoderm and endoderm progenitor cells. Similar to in vivo embryogenesis, further differentiation of these progenitor cells results in formation of terminally differentiated cell types illustratively including neurons, cardiomyocytes, endothelial, and pancreatic β-cells. The ability of hES cells to form all three embryonic lineages is one of the main criteria to determine their pluripotency. Early lineage differentiation is assessed using lineage specific markers. Exemplary lineage specific markers include nestin for ectodermal; α-fetoprotein for endodermal; and brachyury for mesodermal. Later stages of differentiation of these progenitor cells into specialized cells are assessed by assay of markers for more specialized cells representing three lineages, such as serotonergic neurons, insulin-positive cells, and cardiomyocytes.
To assess in vitro differentiation, hES cells are isolated and transferred into non-coated culture plates where hES cells form embryoid bodies (EBs). For neuronal differentiation, these EBs are treated with a neurobasal medium (insulin-transferrin-selenium) to induce neuroprogenitor cell formation for seven days. Then, bFGF ([…]) is added to medium for another seven days. […]

[4] = system: hES cells maintained in feeder cells-free culture system; assay: Liposomal ceramide treatment of hES cells in feeder cell-free culture (GFR-MATRIGEL); format: cell-based, human; settings: five micromolar
Description: NIH-registered hES cell lines, H1 (WA-01; 46XY) and H9 (WA-09; 46XX), are maintained on mouse embryonic fibroblasts (feeder cells) as recommended by the WiCell Research Institute (Madison, Wis.). Mouse feeder cells are irradiated (7500 Rad) and plated (2×10^4 cells/cm^2) on 6-well plates pre-coated with 0.1% gelatin. Feeder cells are allowed to attach and grow overnight prior to hES cell co-culture. Human ES cells are maintained with Dulbecco's Modified Eagle Medium/F12 (Gibco) supplemented with 20% KnockOut serum replacement (Gibco), 1% nonessential amino acids (Gibco), 2 mM GlutaMAX-1 (Gibco), 4 ng/ml basic human FGF (Invitrogen) and 0.1 mM beta-mercaptoethanol (Sigma). Cells are manually passaged following 10 min of collagenase IV incubation (1 mg/ml) at 1:5-1:10 split ratio every 5-7 days. For feeder cell-free culture, hES cells are plated and cultured on 6-well dishes coated with growth factor reduced (GFR)-MATRIGEL, diluted 1:24 in DMEM/F12. Human ES cells co-cultured with feeder cells are treated with collagenase IV for 10 min, collected manually and plated in a 1:3-1:5 split ratio (day=0). Cells are maintained with normal hES cell culture medium until treatment with ceramide (day=2). […]
Light microscopy images of cells from 10 random fields are recorded using a Nikon TS-100 phase-contrast microscope and a Nikon CoolPix 5000 digital camera. […]

Substance: ceramide
- effect on peripheral cells of H9 hESC colonies ([1]; 5 micromolar, 8 hrs, H9 (WA09), with MEF): eliminates cells located on the periphery of the hESC colonies
- growth of central hESCs after addition of ceramide ([1]; Example 22): continue their normal growth
- TUNEL: apoptosis after ceramide-conditioning [2]: hESCs on the periphery of the colonies are, indeed, undergoing apoptosis
- differentiation capability of ceramide-selected hES cells [3]: capable of differentiated into ectoderm, mesoderm or endoderm progenitor cells
- effect on differentiation of hESCs without feeder cells [4]: inhibits differentiation and allows maintenance of undifferentiated stem cell growth
